Assay results from patent publication US4980372A, “Benzoylaminophenoxybutanoic acid derivatives” (Ono Pharmaceutical Co., Ltd., priority 1987, dated 1990).

These compounds were tested against 5α-reductase (assay: 5α-reductase inhibitory activity in vitro). Conditions: male rats' prostate enzyme, [4-C14]-testosterone, NADPH, 60 mins at 37° C., pH 7.4.
Assay type: biochemical, rat
Protocol: 5α-reductase inhibitory activity in vitro
Inhibitory activity on 5α-reductase in vitro was measured by the following test system.
The test was carried out by making reference to the method of J. Shimazaki et al [See Endocrinical. Japon., 18, 179 (1971)].
Male rats' prostate (4 g) was homogenized with its triple volume of 0.1M HEPES buffer (pH 7.4) including 0.25M cane sugar, and was centrifuged at 3000 r.p.m. for 10 mins.
The precipitate was suspended into the buffer solution described above (10 ml), and the suspension was centrifuged at 3000 r.p.m. for 5 mins. The resulting precipitated was suspended in the buffer solution (3 ml) described above and was used as a sauce of enzyme.
A reaction mixture (total volume 0.1 ml) of [4-C^14 ]-testosterone (1.5 n mol, 1.5×10^5 cpm) NADPH (0.5 μmol) enzyme solution (0.03 ml) described above and several kinds of concentration of the compounds in the present invention was incubated for 60 mins at 37° C. Enzyme reaction was quenched by addition of a mixture (1.0 ml) of diethyl ether, petroleum ether and acetic acid (80:20:1), and the mixture was centrifuged at 3000 r.p.m. for 5 mins. The supernatant (200 μl) was spotted on silica gel thin layer plate. The spot on the plate was developed with a mixture of chloroform, methanol and acetic acid (99:0.8:0.2). Radioactivity of dihydrotestosterone generated on the plate was measured by TLC scanner of radio-autography and inhibitory ratio was calculated.

Row | IC50 | SMILES
1 | 2100 nM | Cc1c(OCc2ccccc2)ccc(C(=O)Nc2ccccc2OCCCC(=O)O)c1C [2(a), 4-[2-(4-benzyloxy-2,3-dimethylbenzoylamino)phenoxy]butanoic acid]
2 | 380 nM | Cc1ccccc1COc1ccc(C(=O)Nc2ccccc2OCCCC(=O)O)c(C)c1C [2(b), 4-[2-[4-(2-methylbenzyloxy)-2,3-dimethylbenzoylamino]phenoxy]butanoic acid]
3 | 1300 nM | Cc1cccc(COc2ccc(C(=O)Nc3ccccc3OCCCC(=O)O)c(C)c2C)c1 [2(c), 4-[2-[4-(3-methylbenzyloxy)-2,3-dimethylbenzoylamino]phenoxy]butanoic acid]
4 | 120 nM | Cc1c(OC(C)c2ccc(CC(C)C)cc2)ccc(C(=O)Nc2ccccc2SCCCC(=O)O)c1C (centres unmarked) [2(dd), 4-[2-[4-[1-(4-isobutylphenyl)ethoxy]-2,3-dimethylbenzoylamino]phenylthio]butanoic acid]
5 | 1400 nM | Cc1cccc(C)c1COc1ccc(C(=O)Nc2ccccc2OCCCC(=O)O)c(C)c1C [2(e), 4-[2-[4-(2,6-dimethylbenzyloxy)-2,3-dimethylbenzoylamino]phenoxy]butanoic acid]
6 | 270 nM | CCc1ccc(COc2ccc(C(=O)Nc3ccccc3OCCCC(=O)O)c(C)c2C)cc1 [2(f), 4-[2-[4-(4-ethybenzyloxy)-2,3-dimethylbenzoylamino]phenoxy]butanoic acid]
7 | 340 nM | CCCc1ccc(COc2ccc(C(=O)Nc3ccccc3OCCCC(=O)O)c(C)c2C)cc1 [2(g), 4-[2-[4-(4-propylbenzyloxy)-2,3-dimethylbenzoylamino]phenoxy]butanoic acid]
8 | 2000 nM | Cc1c(OCc2ccc(Cl)cc2)ccc(C(=O)Nc2ccccc2OCCCC(=O)O)c1C [2(i), 4-[2-[4-(4-chlorobenzyloxy)-2,3-dimethylbenzoylamino]phenoxy]butanoic acid]
9 | 2500 nM | Cc1c(OCc2ccc(CC3CCC3)cc2)ccc(C(=O)Nc2ccccc2OCCCC(=O)O)c1C [2(j), 4-[2-[4-(4-cyclobutylmethylbenzyloxy)-2,3-dimethylbenzoylamino]phenoxy]butanoic]
10 | 2600 nM | Cc1c(OCCc2ccccc2)ccc(C(=O)Nc2ccccc2OCCCC(=O)O)c1C [2(k), 4-[2-[4-(2-phenylethoxy)-2,3-dimethylbenzoylamino]phenoxy]butanoic acid]
11 | 5 nM | Cc1c(OC(C)c2ccc(CC(C)C)cc2)ccc(C(=O)Nc2ccccc2OCCCC(=O)O)c1C (centres unmarked) [2(o), 4-[2-[4-[1-(4-isobutylphenyl)ethoxy]-2,3-dimethylbenzoylamino]phenoxy]butanoic acid]
12 | 11 nM | CCCc1ccc(C(Oc2ccc(C(=O)Nc3ccccc3OCCCC(=O)O)c(C)c2C)c2ccc(CCC)cc2)cc1 [2(p), 4-[2-[4-[bis(4-propylphenyl)methoxy]-2,3-dimethylbenzoylamino]phenoxy]butanoic acid]
13 | 2800 nM | CC(C)Cc1ccc(COc2ccc(C(=O)Nc3ccccc3OCCCC(=O)O)c(Cl)c2Cl)cc1 [2(x), 4-[2-[4-(4-isobutylbenzyloxy)-2,3-dichlorobenzoylamino]phenoxy]butanoic acid]
14 | 410 nM | CC(C)Cc1ccc(COc2ccc(C(=O)Nc3ccccc3OCCCC(=O)O)c3c2CCC3)cc1 [2(y), 4-[2-(7-(4-isobutylbenzyloxy)indane-4-carbonylamino]phenoxy]butanoic acid]
15 | 700 nM | CCCc1ccc(COc2ccc(C(=O)Nc3ccccc3[S+]([O-])CCCC(=O)O)c(C)c2C)cc1 (centres unmarked) [Example 3, 4-[2-[4-(4-propylbenzyloxy)-2,3-dimethylbenzoylamino]phenylsulfinyl]butanoic acid]

Continued, compound first:

Row | SMILES | IC50
16 | CC(C)Cc1ccc(COc2ccc(C(=O)Nc3ccccc3OCCCC(=O)O)c3ccccc23)cc1 [2(aa), 4-[2-[4-[4-isobutylbenzyloxy)naphthalene-1-carbonylamino]phenoxy]butanoic acid] | 520 nM
17 | CC(C)Cc1ccc(COc2ccc(C(=O)Nc3ccccc3SCCCC(=O)O)c3c2CCCC3)cc1 [2(bb), 4-[2-[4-(4-isobutylbenzyloxy)-5,6,7,8-tetrahydronaphthalene-1-carbonylamino]phenylthio]butanoic acid] | 420 nM
18 | CCCc1ccc(COc2ccc(C(=O)Nc3ccccc3SCCCC(=O)O)c(C)c2C)cc1 [2(cc), 4-[2-[4-(4-propylbenzyloxy)-2,3-dimethylbenzoylamino)phenylthio]butanoic acid] | 380 nM
19 | Cc1ccc(COc2ccc(C(=O)Nc3ccccc3OCCCC(=O)O)c(C)c2C)cc1 [2(d), 4-[2-[4-(4-methylbenzyloxy)-2,3-dimethylbenzoylamino]phenoxy]butanoic acid] | 980 nM
20 | Cc1c(OCc2ccc(C(C)C)cc2)ccc(C(=O)Nc2ccccc2OCCCC(=O)O)c1C [2(h), 4-[2-[4-(4-isopropylbenzyloxy)-2,3-dimethylbenzoylamino]phenoxy]butanoic acid] | 260 nM
21 | Cc1c(OCCCc2ccccc2)ccc(C(=O)Nc2ccccc2OCCCC(=O)O)c1C [2(l)] | 1000 nM
22 | Cc1c(OCCCCc2ccccc2)ccc(C(=O)Nc2ccccc2OCCCC(=O)O)c1C [2(m), 4-[2-[4-(4-phenylbutoxy)-2,3-dimethylbenzoylamino]phenoxy]butanoic acid] | 750 nM
23 | Cc1c(OCCCCCc2ccccc2)ccc(C(=O)Nc2ccccc2OCCCC(=O)O)c1C [2(n), 4-[2-[4-(5-phenylpentyloxy)-2,3-dimethylbenzoylamino]phenoxy]butanoic acid] | 950 nM
24 | Cc1c(OC(c2ccccc2)c2ccccc2)ccc(C(=O)Nc2ccccc2OCCCC(=O)O)c1C [2(q)] | 200 nM
25 | CC(C)Cc1ccc(COc2ccc(C(=O)Nc3ccccc3OCCCC(=O)O)c3c2CCCC3)cc1 [2(z), 4-[2-[4-(4-isobutylbenzyloxy)-5,6,7,8-tetrahydronaphthalene-1-carbonylamino]phenoxy]butanoic acid] | 50 nM
26 | Cc1c(OCc2ccc(CC(C)C)cc2)ccc(C(=O)Nc2ccccc2OCCCC(=O)O)c1C [Example 2, 4-[2-[4-(4 isobutylbenzyloxy)-2 3-dimethylbenzoylamino]phenoxy]butanoic acid] | 120 nM
